The molecules below were run against DGKα (Homo sapiens (Human), UniProt P23743) (assay: Human DGKα kinase activity inhibition assay (ADP-Glo)). Conditions: recombinant full-length human DGKα, 55 μM ATP, 7 μM 1,2-dioleoyl-sn-glycerol, read-out: IC50 values of examples in in vitro human DGKa kinase activity inhibition assays.
Format: biochemical
Summary of the method: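 Activity was measured as ADP production, detected by luciferase luminescence after removal of unused ATP. The enzyme was baculovirus-expressed full-length human DGKα with a C-terminal FLAG tag. The substrate was 1,2-dioleoyl-sn-glycerol in detergent micelles, and compounds came from 100× DMSO solutions.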

Sequence of DGKα (P23743 other isoform, or with tags, fused parts or gaps): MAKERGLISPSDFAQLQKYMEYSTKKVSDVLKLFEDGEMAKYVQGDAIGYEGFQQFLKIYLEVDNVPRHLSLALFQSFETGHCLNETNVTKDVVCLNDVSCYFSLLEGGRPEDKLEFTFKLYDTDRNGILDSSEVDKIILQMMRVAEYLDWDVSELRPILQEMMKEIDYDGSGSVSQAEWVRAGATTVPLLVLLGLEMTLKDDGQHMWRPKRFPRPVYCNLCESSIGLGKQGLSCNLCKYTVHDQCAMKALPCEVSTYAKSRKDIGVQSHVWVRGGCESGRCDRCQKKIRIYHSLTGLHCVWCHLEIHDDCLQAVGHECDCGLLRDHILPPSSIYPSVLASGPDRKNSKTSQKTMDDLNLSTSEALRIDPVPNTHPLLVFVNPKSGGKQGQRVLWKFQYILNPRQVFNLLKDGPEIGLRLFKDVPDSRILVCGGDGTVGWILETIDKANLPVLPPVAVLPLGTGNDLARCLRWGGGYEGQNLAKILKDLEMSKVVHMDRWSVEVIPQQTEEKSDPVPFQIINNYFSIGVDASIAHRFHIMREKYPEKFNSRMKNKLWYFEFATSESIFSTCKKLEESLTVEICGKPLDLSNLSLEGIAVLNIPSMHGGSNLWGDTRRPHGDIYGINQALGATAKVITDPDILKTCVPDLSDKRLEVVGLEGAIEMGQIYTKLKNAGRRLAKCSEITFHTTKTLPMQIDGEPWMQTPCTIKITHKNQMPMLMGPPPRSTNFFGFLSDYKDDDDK

| Compound | IC50 [nM] |
| --- | --- |
| Cn1c(=O)c(C(N)=O)c(N2CCC(c3ccn(-c4cccc(Cl)c4)n3)CC2)c2ccccc21 [Example 474, 4-{4-[1-(3-chlorophenyl)-1H-pyrazol-3-yl]piperidin-1-yl}-1-methyl-2-oxo-1,2-dihydroquinoline-3-carboxamide] | 4.6 |
| Cn1c(=O)c(C(N)=O)c(N2CCC(c3nc(-c4cccnc4)no3)CC2)c2ccccc21 [Example 475, 1-methyl-2-oxo-4-{4-[3-(pyridin-3-yl)-1,2,4-oxadiazol-5-yl]piperidin-1-yl}-1,2-dihydroquinoline-3-carboxamide] | 224 |
| COc1cccc(-c2csc(C3CCN(c4c(C(N)=O)c(=O)n(C)c5ccccc45)CC3)n2)c1 [Example 476, 4-{4-[4-(3-methoxyphenyl)-1,3-thiazol-2-yl]piperidin-1-yl}-1-methyl-2-oxo-1,2-dihydroquinoline-3-carboxamide] | 7.1 |
| COc1ccccc1-c1csc(C2CCN(c3c(C(N)=O)c(=O)n(C)c4ccccc34)CC2)n1 [Example 477, 4-{4-[4-(2-methoxyphenyl)-1,3-thiazol-2-yl]piperidin-1-yl}-1-methyl-2-oxo-1,2-dihydroquinoline-3-carboxamide] | 3.9 |
| Cc1ccc(-c2csc(C3CCN(c4c(C(N)=O)c(=O)n(C)c5ccccc45)CC3)n2)cc1 [Example 478, 1-methyl-4-{4-[4-(4-methylphenyl)-1,3-thiazol-2-yl]piperidin-1-yl}-2-oxo-1,2-dihydroquinoline-3-carboxamide] | 9.4 |
| Cc1ccc2oc(C3CCN(c4c(C(N)=O)c(=O)n(C)c5cc(OC6CCOCC6)ccc45)CC3)nc2c1 [Example 479, 1-methyl-4-[4-(5-methyl-1,3-benzoxazol-2-yl)piperidin-1-yl]-7-[(oxan-4-yl)oxy]-2-oxo-1,2-dihydroquinoline-3-carboxamide] | 59 |
| COCCOc1ccc2c(N3CCC(c4nc5cc(C)ccc5o4)CC3)c(C(N)=O)c(=O)n(C)c2c1 [Example 480, 7-(2-methoxyethoxy)-1-methyl-4-[4-(5-methyl-1 3-benzoxazol-2-yl)piperidin-1-yl]-2-oxo-1,2-dihydroquinoline-3-carboxamide] | 9.8 |
| Cc1ccc2oc(C3CCN(c4c(C(N)=O)c(=O)n(C)c5cc(OCC6CO6)ccc45)CC3)nc2c1 (centres unmarked) [Example 481, 1-methyl-4-[4-(5-methyl-1,3-benzoxazol-2-yl)piperidin-1-yl]-7-{[oxiran-2-yl]methoxy}-2-oxo-1,2-dihydroquinoline-3-carboxamide] | 2 |
| Cc1ccc2oc(C3CCN(c4c(C(N)=O)c(=O)n(C)c5cc(OC6COC6)ccc45)CC3)nc2c1 [Example 485, 1-methyl-4-[4-(5-methyl-1,3-benzoxazol-2-yl)piperidin-1-yl]-7-[(oxetan-3-yl)oxy]-2-oxo-1,2-dihydroquinoline-3-carboxamide] | 2 |
| COc1ccc2oc(C3CCN(c4c(C(N)=O)c(=O)n(C)c5ccccc45)CC3)nc2c1 [Example 486, 4-[4-(5-methoxy-1,3-benzoxazol-2-yl)piperidin-1-yl]-1-methyl-2-oxo-1,2-dihydroquinoline-3-carboxamide] | 5.6 |
| Cn1c(=O)c(C(N)=O)c(N2CCC(c3nc4cc(OCC5CCCO5)ccc4o3)CC2)c2ccccc21 (centres unmarked) [Example 487, 1-methyl-2-oxo-4-(4-{5-[(oxolan-2-yl)methoxy]-1,3-benzoxazol-2-yl}piperidin-1-yl)-1,2-dihydroquinoline-3-carboxamide] | 13 |
| Cn1c(=O)c(C(N)=O)c(N2CCC(F)(c3nc4ccccc4o3)CC2)c2ccccc21 [Example 488, 4-[4-(1,3-benzoxazol-2-yl)-4-fluoropiperidin-1-yl]-1-methyl-2-oxo-1,2-dihydroquinoline-3-carboxamide] | 1.6 |
| COC1(c2nc3ccccc3o2)CCN(c2c(C(N)=O)c(=O)n(C)c3ccccc23)CC1 [Example 489, 4-[4-(1,3-benzoxazol-2-yl)-4-methoxypiperidin-1-yl]-1-methyl-2-oxo-1,2-dihydroquinoline-3-carboxamide] | 7.5 |
| COCc1ccc2oc(C3(C)CCN(c4c(C(N)=O)c(=O)n(C)c5ccccc45)CC3)nc2c1 [Example 490, 4-{4-[5-(methoxymethyl)-1,3-benzoxazol-2-yl]-4-methylpiperidin-1-yl}-1-methyl-2-oxo-1,2-dihydroquinoline-3-carboxamide] | 7.8 |
| COCc1ccc2nc(C3(C)CCN(c4c(C(N)=O)c(=O)n(C)c5ccccc45)CC3)oc2c1 [Example 491, 4-{4-[6-(methoxymethyl)-1,3-benzoxazol-2-yl]-4-methylpiperidin-1-yl}-1-methyl-2-oxo-1,2-dihydroquinoline-3-carboxamide] | 9.1 |
| Cc1ccc2oc(C3CCN(c4c(C(N)=O)c(=O)n(C)c5ccc(Br)cc45)CC3)nc2c1 [Example 492, 6-bromo-1-methyl-4-[4-(5-methyl-1,3-benzoxazol-2-yl)piperidin-1-yl]-2-oxo-1,2-dihydroquinoline-3-carboxamide] | 1.5 |
| Cc1ccc2oc(C3CCN(c4c(C(N)=O)c(=O)n(C)c5c(Br)cccc45)CC3)nc2c1 [Example 493, 8-bromo-1-methyl-4-[4-(5-methyl-1,3-benzoxazol-2-yl)piperidin-1-yl]-2-oxo-1,2-dihydroquinoline-3-carboxamide] | 80 |
| Cc1ccc2oc(C3CCN(c4c(C(N)=O)c(=O)n(C)c5cc(N(C)C6COC6)ccc45)CC3)nc2c1 [Example 494, 1-methyl-4-[4-(5-methyl-1,3-benzoxazol-2-yl)piperidin-1-yl]-7-[methyl(oxetan-3-yl)amino]-2-oxo-1,2-dihydroquinoline-3-carboxamide] | 6.2 |
| Cc1ccc2oc(C3CCN(c4c(C(N)=O)c(=O)n(C)c5cc(N(C)CCO)ccc45)CC3)nc2c1 [Example 495, 7-[(2-hydroxyethyl)(methyl)amino]-1-methyl-4-[4-(5-methyl-1,3-benzoxazol-2-yl)piperidin-1-yl]-2-oxo-1,2-dihydroquinoline-3-carboxamide] | 1.4 |
| Cc1ccc2oc(C3CCN(c4c(C(N)=O)c(=O)n(C)c5ccc(C#N)cc45)CC3)nc2c1 [Example 498, 6-cyano-1-methyl-4-[4-(5-methyl-1,3-benzoxazol-2-yl)piperidin-1-yl]-2-oxo-1,2-dihydroquinoline-3-carboxamide] | 3.1 |
| Cc1ccc2oc(C3CCN(c4c(C(N)=O)c(=O)n(C)c5ccc(C(N)=O)cc45)CC3)nc2c1 [Example 499, 1-methyl-4-[4-(5-methyl-1,3-benzoxazol-2-yl)piperidin-1-yl]-2-oxo-1,2-dihydroquinoline-3,6-dicarboxamide] | 74 |
| Cc1ccc2oc(C3CCN(c4c(C(N)=O)c(=O)n(C)c5cc(N(C)CC#N)ccc45)CC3)nc2c1 [Example 500, 7-[(cyanomethyl)(methyl)amino]-1-methyl-4-[4-(5-methyl-1,3-benzoxazol-2-yl)piperidin-1-yl]-2-oxo-1,2-dihydroquinoline-3-carboxamide] | 0.7 |
| COc1ccc2c(c1)c(N1CCC(c3nc4cc(C)ccc4o3)CC1)c(C(N)=O)c(=O)n2C [Example 501, 6-methoxy-1-methyl-4-[4-(5-methyl-1,3-benzoxazol-2-yl)piperidin-1-yl]-2-oxo-1,2-dihydroquinoline-3-carboxamide] | 21 |

From patent US11998539B2, “Substituted aminoquinolones as DGKalpha inhibitors for immune activation” (Bayer Aktiengesellschaft, priority 2019, dated 2024)
